In patent publication US9334264B2, “NAMPT inhibitors” (AbbVie Inc., priority 2012, dated 2016) one finds IC50 data, which are given here for 21 molecules.

The target of assay [1] is NAMPT (Homo sapiens, UniProt P43490). Kind of assay: Time-Resolved Fluorescence Resonance Energy Transfer (TR-FRET) Binding Assay of NAMPT with PRPP. The settings on record: 200 μM PRPP and 2.5 mM ATP; 2 nM NAMPT, 2 nM probe, equilibrated 16 hours. As to the method: Time-Resolved Fluorescence Resonance Energy Transfer (TR-FRET) Binding Assay of NAMPT with PRPP
Compound handling and data processing were identical to the assay in the absence of substrates (above). Final concentrations were 1× assay buffer, 2% DMSO, 2 nM NAMPT, 2 nM probe, 1 nM Tb-anti-His antibody (Invitrogen #PV5895), 200 μM PRPP and 2.5 mM ATP. Reactions were equilibrated for 16 hours prior to measurement to allow for potential enzymatic modification of test compounds.
A general note: TR-FRET usually uses a lanthanide donor and a delayed reading to cut background.

In assay [2] the target is NAMPT (human, recombinant, C-terminally His-tagged) (Homo sapiens, UniProt P43490). Kind of assay: Time-Resolved Fluorescence Resonance Energy Transfer (TR-FRET) Binding Assay of NAMPT. The note with it: absence of substrates; 6.8 nM NAMPT, 200 nM probe, equilibrated 3 hours. As to the method:
Determination of the utility of compounds having Formula (I) as binders to and inhibitors of NAMPT was performed using Time-Resolved Fluorescence Resonance Energy Transfer (TR-FRET) binding assays.
Time-Resolved Fluorescence Resonance Energy Transfer (TR-FRET) Binding Assay of NAMPT
Test compounds were serially diluted (typically 11 half log dilutions) in neat DMSO to 50× final concentrations prior to dilution with assay buffer (50 mM HEPES (NaOH), pH 7.5, 100 mM NaCl, 10 mM MgCl2, 1 mM DTT, 1% Glycerol) to 3× and 6% DMSO. Six μL were transferred to 384-well low-volume plates (Owens Corning #3673). To this, 12 μL of a 1.5× solution containing enzyme, probe and antibody were added. Final concentrations in the 18 μL reactions were 1× assay buffer, 2% DMSO, 6.8 nM NAMPT (human, recombinant, C-terminally His-tagged), 200 nM probe (a potent nicotinamide-competitive inhibitor conjugated to Oregon Green 488) and 1 nM Tb-anti-His antibody (Invitrogen #PV5895). Reactions were equilibrated at room temperature for 3 hours prior to reading on an Envision multi-label plate reader (Perkin Elmer; Ex=337 nm, Em=520 and 495 nm). Time-resolved FRET ratios (Em520/Em495) were normalized to controls, plotted as a function of compound concentration and fit with the four-parameter logistic equation to determine IC50s.

Molecules are shown by their SMILES.

In general, IC50 refers to the midpoint of a concentration-inhibition curve.

Chain of NAMPT (P43490 whole entry): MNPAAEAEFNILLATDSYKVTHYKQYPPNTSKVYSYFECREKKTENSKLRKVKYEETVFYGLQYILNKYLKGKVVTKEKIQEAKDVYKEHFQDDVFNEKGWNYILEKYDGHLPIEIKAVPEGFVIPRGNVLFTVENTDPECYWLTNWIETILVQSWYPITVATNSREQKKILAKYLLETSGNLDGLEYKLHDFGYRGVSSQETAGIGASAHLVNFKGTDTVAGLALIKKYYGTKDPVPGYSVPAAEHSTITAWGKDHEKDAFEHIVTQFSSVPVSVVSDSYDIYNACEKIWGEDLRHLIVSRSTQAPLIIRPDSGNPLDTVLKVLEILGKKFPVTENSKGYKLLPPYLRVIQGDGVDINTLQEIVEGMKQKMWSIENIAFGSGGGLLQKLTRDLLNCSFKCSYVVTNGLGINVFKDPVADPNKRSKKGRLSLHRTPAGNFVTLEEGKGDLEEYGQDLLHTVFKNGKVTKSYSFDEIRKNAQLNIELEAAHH
Chain of NAMPT (human, recombinant, C-terminally His-tagged) (P43490 whole entry): as above

With `O=C(NCCCn1ccnc1)c1cnc(N(Cc2ccc(Cl)cn2)C(=O)C2CCOCC2)s1` [Example 205, 2-{[(5-chloropyridin-2-yl)methyl](tetrahydro-2H-pyran-4-ylcarbonyl)amino}-N-[3-(1H-imidazol-1-yl)propyl]-1,3-thiazole-5-carboxamide], the IC50 in assay [1] stood at 0.177 nM; in assay [2], 739 nM.
Take `CC(C)CCN(C(=O)C(C)Oc1ccccc1)c1ncc(C(=O)NCCCn2ccnc2)s1` (stereo not drawn) [Example 77, N-[3-(1H-imidazol-1-yl)propyl]-2-[(3-methylbutyl)(2-phenoxypropanoyl)amino]-1,3-thiazole-5-carboxamide]: the results for the IC50 in assay [1] and in assay [2] were 0.774 nM and 95.6 nM, respectively.
Turning to `COCCN(C(=O)Cc1ccc(C#N)cc1)c1ncc(C(=O)NCCCn2ccnc2)s1` [Example 187, 2-{[(4-cyanophenyl)acetyl](2-methoxyethyl)amino}-N-[3-(1H-imidazol-1-yl)propyl]-1,3-thiazole-5-carboxamide], the IC50 in assay [1] is 0.216 nM; in assay [2], 3210 nM.
For `COCCNC(=O)N(CCc1ccc(Cl)cn1)c1ncc(C(=O)NCCCn2ccnc2)s1` [Example 209, 2-{[2-(5-chloropyridin-2-yl)ethyl][(2-methoxyethyl)carbamoyl]amino}-N-[3-(1H-imidazol-1-yl)propyl]-1,3-thiazole-5-carboxamide], in that order: 0.245 nM and 6700 nM.
For `N#Cc1ccc(CN(C(=O)NCCOCCO)c2ncc(C(=O)NCCCn3ccnc3)s2)cc1` [Example 125, 2-[(4-cyanobenzyl){[2-(2-hydroxyethoxy)ethyl]carbamoyl}amino]-N-[3-(1H-imidazol-1-yl)propyl]-1,3-thiazole-5-carboxamide], in that order: 0.712 nM and over 10000 nM.
The like results for `CNC(=O)CCN(C(=O)CCOC)c1ncc(C(=O)NCCCn2ccnc2)s1` [Example 200, N-[3-(1H-imidazol-1-yl)propyl]-2-{(3-methoxypropanoyl)[3-(methylamino)-3-oxopropyl]amino}-1,3-thiazole-5-carboxamide] were, in that order, 0.747 nM and over 10000 nM.
`COCC(=O)N(Cc1ccc(F)cc1)c1ncc(C(=O)NCCCn2ccnc2)s1` [Example 24, 2-[(4-fluorobenzyl)(methoxyacetyl)amino]-N-[3-(1H-imidazol-1-yl)propyl]-1,3-thiazole-5-carboxamide]: the results for the IC50 in assay [1] and in assay [2] were 0.682 nM and 4140 nM, respectively.
`CC(C)C(CC(=O)O)NC(=O)N(Cc1ccc(C#N)cc1)c1ncc(C(=O)NCCCn2ccnc2)s1` (stereo not drawn) [Example 168, 3-{[(4-cyanobenzyl)(5-{[3-(1H-imidazol-1-yl)propyl]carbamoyl}-1,3-thiazol-2-yl)carbamoyl]amino}-4-methylpentanoic acid]: the IC50 in assay [1] is 1390 nM; in assay [2], over 10000 nM.
For `COCC(COC)NC(=O)N(Cc1ccc(F)cc1)c1ncc(C(=O)NCCCn2ccnc2)s1` [Example 89, 2-{[(1,3-dimethoxypropan-2-yl)carbamoyl](4-fluorobenzyl)amino}-N-[3-(1H-imidazol-1-yl)propyl]-1,3-thiazole-5-carboxamide], in that order: 1.98 nM and 5830 nM.
As to `O=C(NCCCn1ccnc1)c1cnc(N(Cc2ccc(F)cc2)Cc2ccc(Cl)cc2)s1` [Example 15, 2-[(4-chlorobenzyl)(4-fluorobenzyl)amino]-N-[3-(1H-imidazol-1-yl)propyl]-1,3-thiazole-5-carboxamide], the figures for the IC50 in assay [1] and in assay [2] were 92.1 nM and 3820 nM, respectively.
Consider `CCC(CNC(=O)N(Cc1ccc(F)cc1)c1ncc(C(=O)NCCCn2ccnc2)s1)OC` (stereo not drawn) [Example 90, 2-{(4-fluorobenzyl)[(2-methoxybutyl)carbamoyl]amino}-N-[3-(1H-imidazol-1-yl)propyl]-1,3-thiazole-5-carboxamide], for which the IC50 is 2.25 nM in assay [1] and over 10000 nM in assay [2].
For `COCCN(C(=O)CCc1cccnc1)c1ncc(C(=O)NCCCn2ccnc2)s1` [Example 183, N-[3-(1H-imidazol-1-yl)propyl]-2-{(2-methoxyethyl)[3-(pyridin-3-yl)propanoyl]amino}-1,3-thiazole-5-carboxamide], in that order: 0.281 nM and 2940 nM.
As to `CC(C)(CNC(=O)N(Cc1ccc(C#N)cc1)c1ncc(C(=O)NCCCn2ccnc2)s1)C(=O)O` [Example 169, 3-{[(4-cyanobenzyl)(5-{[3-(1H-imidazol-1-yl)propyl]carbamoyl}-1,3-thiazol-2-yl)carbamoyl]amino}-2,2-dimethylpropanoic acid], the IC50 in assay [1] came to 266 nM; in assay [2], 8450 nM.
For `COCCC(=O)N(Cc1cnc(C)cn1)c1ncc(C(=O)NCCCn2ccnc2)s1` [Example 115, N-[3-(1H-imidazol-1-yl)propyl]-2-{(3-methoxypropanoyl)[(5-methylpyrazin-2-yl)methyl]amino}-1,3-thiazole-5-carboxamide], in that order: 3.6 nM and 1420 nM.
For `N#Cc1ccc(CN(C(=O)NCCCO)c2ncc(C(=O)NCCCn3ccnc3)s2)cc1` [Example 130, 2-{(4-cyanobenzyl)[(3-hydroxypropyl)carbamoyl]amino}-N-[3-(1H-imidazol-1-yl)propyl]-1,3-thiazole-5-carboxamide], in that order: 1.11 nM and over 10000 nM.
Take `COCCC(=O)N(CCC1OCCO1)c1ncc(C(=O)NCCCn2ccnc2)s1` [Example 180, 2-{[2-(1,3-dioxolan-2-yl)ethyl](3-methoxypropanoyl)amino}-N-[3-(1H-imidazol-1-yl)propyl]-1,3-thiazole-5-carboxamide]: the IC50 in assay [1] was determined as 0.333 nM; in assay [2] it was 7710 nM.
`COCCCN(C(=O)CCOC)c1ncc(C(=O)NCCCn2ccnc2)s1` [Example 176, N-[3-(1H-imidazol-1-yl)propyl]-2-[(3-methoxypropanoyl)(3-methoxypropyl)amino]-1,3-thiazole-5-carboxamide]: the values for the 50% inhibitory concentration (IC50) in assay [1] and in assay [2] were 0.365 nM and 7360 nM, respectively.
On to `N#Cc1ccc(CN(C(=O)NCCCC(=O)O)c2ncc(C(=O)NCCCn3ccnc3)s2)cc1` [Example 172, 4-{[(4-cyanobenzyl)(5-{[3-(1H-imidazol-1-yl)propyl]carbamoyl}-1,3-thiazol-2-yl)carbamoyl]amino}butanoic acid], for which the half-inhibitory concentration (IC50) in assay [1] is 153 nM; in assay [2], over 10000 nM.
The like results for `COCCC(=O)N(CCN1CCOC1=O)c1ncc(C(=O)NCCCn2ccnc2)s1` [Example 198, N-[3-(1H-imidazol-1-yl)propyl]-2-{(3-methoxypropanoyl)[2-(2-oxo-1,3-oxazolidin-3-yl)ethyl]amino}-1,3-thiazole-5-carboxamide] were, in that order, 0.633 nM and 2610 nM.
On to `O=C(NCCCn1ccnc1)c1cnc(N(Cc2ccc(F)cc2)C(=O)CN2CCN(CC3CC3)CC2)s1` [Example 34, 2-[{[4-(cyclopropylmethyl)piperazin-1-yl]acetyl}(4-fluorobenzyl)amino]-N-[3-(1H-imidazol-1-yl)propyl]-1,3-thiazole-5-carboxamide], for which the IC50 in assay [1] is 0.502 nM; in assay [2] it was 7570 nM.
The like results for `COCCC(=O)N(Cc1ccccc1C)c1ncc(C(=O)NCCCn2ccnc2)s1` [Example 119, N-[3-(1H-imidazol-1-yl)propyl]-2-[(3-methoxypropanoyl)(2-methylbenzyl)amino]-1,3-thiazole-5-carboxamide] were, in that order, 1.89 nM and 4570 nM.
